# Test results reported in patent publication US4287206A, “Halogen derivatives of 8-hydroxycarboxylic acids; the processes for their preparation and medicaments in which they are present” (priority 1978, dated 1981).
# How the values were obtained:
# mice [1] = test: Anti-apomorphine activity in mice (hypothermia caused by apomorphine); assay type: in vivo
# mice [2] = test: Anti-oxotremorine activity in mice (hypothermia induced by oxotremorine); assay type: in vivo; settings: oxotremorine 0.5 mg.kg^-1 i.p.
# Description: Anti-oxotremorine activity in mice
# At time 0, the mice receive oxotremorine (0.5 mg.kg^-1) by intraperitoneal administration; after 30 minutes, either distilled water or the medicament according to the invention, obtained in accordance with Example I, is administered to the mice intraperitoneally or orally.
# The mice are then observed and the trembling is rated from 0 to 3 as a function of its intensity, every 10 minutes for 30 minutes. Moreover, the existence of peripheral symptoms (tears, hypersialosis and defections) is observed for 2 hours, in the presence or absence of trembling. The rectal temperature is measured every 30 minutes for 2 hours, after administration of oxotremorine.
compound,measurement,setting,value
"CC1CC(c2ccc(Cl)cc2)C(c2ccccc2)C(=O)O1 (stereo not drawn) [Example I, trans-4-(4'-chlorophenyl)-6-methyl-3-phenyl-3,4,5,6-tetrahydropyrone-2]","Rectal temperatures, results in % inhibition of the hypothermia","mice [1]; 128 mg/kg oral, apomorphine 16 mg.kg^-1 subcutaneously",81%
same,"Rectal temperatures, results in % inhibition of the hypothermia","mice [1]; 256 mg/kg oral, apomorphine 1 mg.kg^-1 subcutaneously",89%
same,"Rectal temperatures, results in % inhibition of the hypothermia","mice [1]; 256 mg/kg oral, apomorphine 16 mg.kg^-1 subcutaneously",116%
same,Rectal temperatures °C.,"mice [2]; 1 mg/kg oral, 30 min",29.8 ± 0.40 °C
same,Rectal temperatures °C.,"mice [2]; 1 mg/kg oral, 60 min",27.8 ± 0.65 °C
same,Rectal temperatures °C.,"mice [2]; 1 mg/kg oral, 90 min",27.8 ± 1.36 °C
same,Rectal temperatures °C.,"mice [2]; 1 mg/kg oral, 120 min",28.0 ± 1.65 °C
same,Rectal temperatures °C.,"mice [2]; 2 mg/kg intraperitoneal, 30 min",30.8 ± 0.43 °C
same,Rectal temperatures °C.,"mice [2]; 2 mg/kg intraperitoneal, 60 min",29.1 ± 0.46 °C
same,Rectal temperatures °C.,"mice [2]; 2 mg/kg intraperitoneal, 90 min",29.4 ± 0.52 °C
same,Rectal temperatures °C.,"mice [2]; 2 mg/kg intraperitoneal, 120 min",29.9 ± 0.77 °C
same,Rectal temperatures °C.,"mice [2]; 2 mg/kg oral, 30 min",31.5 ± 0.43 °C
same,Rectal temperatures °C.,"mice [2]; 2 mg/kg oral, 60 min",31.0 ± 0.71 °C
same,Rectal temperatures °C.,"mice [2]; 2 mg/kg oral, 90 min",31.2 ± 0.86 °C
same,Rectal temperatures °C.,"mice [2]; 2 mg/kg oral, 120 min",31.9 ± 1.14 °C
same,Rectal temperatures °C.,"mice [2]; 4 mg/kg intraperitoneal, 30 min",30.2 ± 0.36 °C
same,Rectal temperatures °C.,"mice [2]; 4 mg/kg intraperitoneal, 60 min",31.8 ± 0.42 °C
same,Rectal temperatures °C.,"mice [2]; 4 mg/kg intraperitoneal, 90 min",33.5 ± 0.49 °C
same,Rectal temperatures °C.,"mice [2]; 4 mg/kg intraperitoneal, 120 min",35.7 ± 0.40 °C
same,Rectal temperatures °C.,"mice [2]; 4 mg/kg oral, 30 min",31.8 ± 0.38 °C
same,Rectal temperatures °C.,"mice [2]; 4 mg/kg oral, 60 min",31.0 ± 0.34 °C
same,Rectal temperatures °C.,"mice [2]; 4 mg/kg oral, 90 min",31.6 ± 0.91 °C
same,Rectal temperatures °C.,"mice [2]; 4 mg/kg oral, 120 min",32.4 ± 0.89 °C
same,Rectal temperatures °C.,"mice [2]; 8 mg/kg intraperitoneal, 30 min",32.1 ± 0.52 °C
same,Rectal temperatures °C.,"mice [2]; 8 mg/kg intraperitoneal, 60 min",31.3 ± 0.52 °C
same,Rectal temperatures °C.,"mice [2]; 8 mg/kg intraperitoneal, 90 min",32.2 ± 0.61 °C
same,Rectal temperatures °C.,"mice [2]; 8 mg/kg intraperitoneal, 120 min",33.8 ± 0.91 °C
same,Rectal temperatures °C.,"mice [2]; 8 mg/kg oral, 30 min",32.6 ± 0.32 °C
same,Rectal temperatures °C.,"mice [2]; 8 mg/kg oral, 60 min",32.4 ± 0.29 °C
same,Rectal temperatures °C.,"mice [2]; 8 mg/kg oral, 90 min",32.9 ± 0.38 °C
same,Rectal temperatures °C.,"mice [2]; 8 mg/kg oral, 120 min",33.8 ± 0.56 °C
same,Rectal temperatures °C.,"mice [2]; 16 mg/kg intraperitoneal, 30 min",32.9 ± 0.46 °C
same,Rectal temperatures °C.,"mice [2]; 16 mg/kg intraperitoneal, 60 min",32.0 ± 0.65 °C
same,Rectal temperatures °C.,"mice [2]; 16 mg/kg intraperitoneal, 90 min",32.8 ± 0.60 °C
same,Rectal temperatures °C.,"mice [2]; 16 mg/kg intraperitoneal, 120 min",35.9 ± 0.81 °C
same,Rectal temperatures °C.,"mice [2]; 16 mg/kg oral, 30 min",31.9 ± 0.53 °C
same,Rectal temperatures °C.,"mice [2]; 16 mg/kg oral, 60 min",31.9 ± 0.49 °C
same,Rectal temperatures °C.,"mice [2]; 16 mg/kg oral, 90 min",32.8 ± 0.70 °C
same,Rectal temperatures °C.,"mice [2]; 16 mg/kg oral, 120 min",33.6 ± 0.97 °C
same,Rectal temperatures °C.,"mice [2]; 32 mg/kg intraperitoneal, 30 min",32.0 ± 0.70 °C
same,Rectal temperatures °C.,"mice [2]; 32 mg/kg intraperitoneal, 60 min",31.2 ± 0.73 °C
same,Rectal temperatures °C.,"mice [2]; 32 mg/kg intraperitoneal, 90 min",32.2 ± 0.85 °C
same,Rectal temperatures °C.,"mice [2]; 32 mg/kg intraperitoneal, 120 min",33.2 ± 1.2 °C
same,Rectal temperatures °C.,"mice [2]; 32 mg/kg oral, 30 min",33.0 ± 0.60 °C
same,Rectal temperatures °C.,"mice [2]; 32 mg/kg oral, 60 min",32.7 ± 0.63 °C
same,Rectal temperatures °C.,"mice [2]; 32 mg/kg oral, 90 min",32.8 ± 0.62 °C
same,Rectal temperatures °C.,"mice [2]; 32 mg/kg oral, 120 min",33.7 ± 0.95 °C
same,Rectal temperatures °C.,"mice [2]; 64 mg/kg intraperitoneal, 30 min",34.0 ± 0.87 °C
same,Rectal temperatures °C.,"mice [2]; 64 mg/kg intraperitoneal, 60 min",33.0 ± 1.2 °C
same,Rectal temperatures °C.,"mice [2]; 64 mg/kg intraperitoneal, 90 min",33.7 ± 1.15 °C
same,Rectal temperatures °C.,"mice [2]; 64 mg/kg intraperitoneal, 120 min",34.5 ± 1.0 °C
same,Rectal temperatures °C.,"mice [2]; 64 mg/kg oral, 30 min",32.2 ± 0.32 °C
same,Rectal temperatures °C.,"mice [2]; 64 mg/kg oral, 60 min",31.7 ± 0.52 °C
same,Rectal temperatures °C.,"mice [2]; 64 mg/kg oral, 90 min",32.8 ± 0.73 °C
same,Rectal temperatures °C.,"mice [2]; 64 mg/kg oral, 120 min",34.1 ± 0.62 °C
same,Rectal temperatures °C.,"mice [2]; 128 mg/kg oral, 30 min",34.8 ± 0.80 °C
same,Rectal temperatures °C.,"mice [2]; 128 mg/kg oral, 60 min",34.9 ± 0.59 °C
same,Rectal temperatures °C.,"mice [2]; 128 mg/kg oral, 90 min",36.2 ± 0.82 °C
same,Rectal temperatures °C.,"mice [2]; 128 mg/kg oral, 120 min",37.1 ± 0.77 °C
same,Rectal temperatures °C.,"mice [2]; 256 mg/kg oral, 30 min",32.4 ± 0.63 °C
same,Rectal temperatures °C.,"mice [2]; 256 mg/kg oral, 60 min",31.3 ± 0.73 °C
same,Rectal temperatures °C.,"mice [2]; 256 mg/kg oral, 90 min",32.4 ± 1.07 °C
same,Rectal temperatures °C.,"mice [2]; 256 mg/kg oral, 120 min",33.9 ± 1.30 °C
